Test results published in PubChem BioAssay AID651975 (The Scripps Research Institute Molecular Screening Center, 2013).
The source made the active and inactive calls. The rule behind the calls is not given here.

Tested on: StAR promoter luciferase reporter cells, luminescence inhibition
Assay: nonselective StAR promoter luciferase inhibitors – cell-based, luminescence, dose response, counter-screen for LRH-1 inverse agonist project, late-stage follow-up (AID 651975)

| SMILES | IC50 |
| --- | --- |
| Cc1ccc(NC(=O)COC(=O)C(NS(=O)(=O)c2ccc(Cl)cc2)C(C)O)cc1C (stereo not drawn) | > 35.9 µM (inactive) |
| COc1ccc(C2(C)NC(=O)N(CC(=O)NCCC3=CCCCC3)C2=O)cc1OC (stereo not drawn) | > 35.9 µM (inactive) |
| COc1ccc(NC(=O)CS(=O)(=O)c2ccc(C)cc2)c(OC)c1 | > 35.9 µM (inactive) |
| CCCc1cc(=O)oc2c(C)c(OCC(=O)NCCCn3ccnc3)ccc12 | > 35.9 µM (inactive) |
| CC(=O)Nc1ncc(Cc2cc(Cl)ccc2Cl)s1 | > 35.9 µM (inactive) |
| COC(=O)c1ccc(NC(=O)CSc2nc3ncccc3[nH]2)cc1 | > 35.9 µM (inactive) |
| COc1ccc(NC(=O)CSc2nnc3ccc(-c4cccnc4)nn23)cc1OC | > 35.9 µM (inactive) |
| CCCN(CC(=O)Nc1ccc(C(C)=O)cc1)CC(=O)Nc1ccccc1C | > 35.9 µM (inactive) |
| Cc1cc(C)c2nc(NC(=O)c3ccc([N+](=O)[O-])o3)sc2c1 | > 35.9 µM (inactive) |
| CCOc1ccc(NC(=O)COC(=O)COc2cccc3c2OC(C)(C)C3)cc1 | > 35.9 µM (inactive) |
| O=C(COc1ccc2c3c(c(=O)oc2c1)CCC3)NCc1ccncc1 | > 35.9 µM (inactive) |
| COc1ccc(CCNC(=O)COC(=O)c2cc(Cl)nc(Cl)c2)cc1 | > 35.9 µM (inactive) |
| O=C(Nc1ccc(Br)cn1)c1ccc([N+](=O)[O-])o1 | > 35.9 µM (inactive) |
| CCCc1cc(=O)oc2c(C)c(OCC(=O)NCCN3CCOCC3)ccc12 | > 35.9 µM (inactive) |
| COC(=O)c1ccc(NC(=O)CN2CCN(c3ccc(Cl)cc3)CC2)cc1 | > 35.9 µM (inactive) |
| COc1ccc(NC(=O)COC(=O)c2cc(S(=O)(=O)N3CCCC3)ccc2O)cc1 | > 35.9 µM (inactive) |
| O=c1[nH]c(Nc2ccc3c(c2)OCCO3)nnc1Cc1ccccc1 | > 35.9 µM (inactive) |
| CCOc1ccc(OCCN2C(=O)NC(Cc3c[nH]c4ccccc34)C2=O)cc1 (stereo not drawn) | > 35.9 µM (inactive) |
| Cc1sc(NC(=O)C(C)C)c(C(=O)Nc2ccccc2)c1C | > 35.9 µM (inactive) |
| CC(C)CC1(C)NC(=O)N(CC(=O)Nc2ccc3c(c2)OCCO3)C1=O (stereo not drawn) | > 35.9 µM (inactive) |
| Cc1cc(OCC(=O)Nc2nccs2)c2c(C)cc(=O)oc2c1 | > 35.9 µM (inactive) |
| Cc1cc(Br)ccc1NC(=O)CSc1nnc(CN2CCOCC2)n1C | > 35.9 µM (inactive) |
| Cc1ccc(NC(=O)CSc2sc3c(O)cc(=O)[nH]c3c2C#N)c(F)c1 | > 35.9 µM (inactive) |
| CCc1cc(=O)[nH]c(SCC(=O)Nc2ccc3c(c2)OCCO3)n1 | > 35.9 µM (inactive) |

| SMILES | IC50 |
| --- | --- |
| COc1ccc(CC(NC(C)=O)C(=O)NC2CCN(c3nnnn3-c3ccccc3)CC2)cc1 (stereo not drawn) | > 35.9 µM (inactive) |
| CCCc1cc(=O)oc2cc(OCC(=O)NCCc3ccc(S(N)(=O)=O)cc3)ccc12 | > 35.9 µM (inactive) |
| CC(=O)Nc1ccc(NC(=O)CSc2ccc(-c3ccco3)nn2)cc1 | > 35.9 µM (inactive) |
| COc1ccccc1Oc1nnnn1-c1ccc(C(N)=O)cc1 | > 35.9 µM (inactive) |
| COCC(=O)NC1CCN(CC(=O)Nc2ccc(OC)cc2[N+](=O)[O-])CC1 | > 35.9 µM (inactive) |
| Cc1ccc(NC(=O)CSc2nc3[nH]c(=O)cc(O)c3s2)c(Br)c1 | > 35.9 µM (inactive) |
| CCc1cc(=O)oc2c(C)c(OCC(=O)NCCN3CCOCC3)ccc12 | > 35.9 µM (inactive) |
| CN1CCN(c2ccc(S(=O)(=O)N3CCCCC3)cc2NC(=O)COc2ccc([N+](=O)[O-])cc2)CC1 | > 35.9 µM (inactive) |
| CCc1c(C)nc(SCC(=O)Nc2ccc3c(c2)OCCO3)[nH]c1=O | > 35.9 µM (inactive) |
| Cc1ccn2c(=O)nc(SCC(=O)Nc3ccc4c(c3)OCCO4)nc2c1 | > 35.9 µM (inactive) |
| Cc1ccc(-c2csc(NC(=O)c3ccc([N+](=O)[O-])o3)n2)cc1 | > 35.9 µM (inactive) |
| Cc1ccc(NC(=O)COC(=O)C(NS(=O)(=O)c2ccc(Cl)cc2)C(C)O)c(Br)c1 (stereo not drawn) | > 35.9 µM (inactive) |
| O=C(Nc1ccc(S(=O)(=O)N2CCOCC2)cc1)c1cccc([N+](=O)[O-])c1 | > 35.9 µM (inactive) |
| COc1ccc(NC(=O)CN2C(=O)NC3(CCCC3)C2=O)cc1 | > 35.9 µM (inactive) |
| CCCc1cc(=O)oc2cc(OCC(=O)NCc3ccccn3)ccc12 | > 35.9 µM (inactive) |
| COc1ccc(CCNC(=O)CSc2ccc(NC(C)=O)cc2)cc1OC | > 35.9 µM (inactive) |
| COC(=O)c1ccc(NC(=O)CSc2nncn2-c2cccnc2)cc1 | > 35.9 µM (inactive) |
| Cc1cc(Br)ccc1NC(=O)CN1C(=O)CCC1=O | > 35.9 µM (inactive) |
| COc1ccc(NC(=O)CSc2sc3c(O)cc(=O)[nH]c3c2C#N)c(OC)c1 | > 35.9 µM (inactive) |
| O=C1CCCN2N=C(SCC(=O)Nc3ccc(Br)cc3)SC2=N1 | > 35.9 µM (inactive) |
| O=C(Nc1ccccc1)c1oc2ccccc2c1NC(=O)C1CC1 | > 35.9 µM (inactive) |
| COC(=O)c1ccc(NC(=O)COc2cccc(-n3cnnn3)c2)cc1 | > 35.9 µM (inactive) |
| O=C(NCC1CCCO1)c1ccc(NC(=O)c2cccc([N+](=O)[O-])c2)cc1 (stereo not drawn) | > 35.9 µM (inactive) |
| Cc1cc(=O)oc2c(C)c(OCC(=O)NC3CC(C)(C)NC(C)(C)C3)ccc12 | > 35.9 µM (inactive) |
